# According to patent publication US10443078B2, “Pichia kudriavzevii NG7 microorganism and uses thereof” (Korea Research Institute of Bioscience and Biotechnology, priority 2014, dated 2019):
# Numbered stars: 1 amine (or outer) side, 2 acyl side, 3 side chain; on linkers, the order of the positions; unused ones are H or OH. Square brackets hold non-standard residues; d marks the D form. Peptide text beside a SMILES is read from it. X1 = CC[C@@H](C)[C@@H](O[*:1])C(=O)[*:2]; NMeVal(β-OH) = CN[C@H](C(=O)O)C(C)(C)O; NMeF = CN[C@@H](Cc1ccccc1)C(=O)O; aIle = CC[C@@H](C)[C@H](N)C(=O)O; NMeV = CN[C@H](C(=O)O)C(C)C
# Key:
# Assay in all cases: Antibiotic resistance of isolated microorganisms on YPD solid medium
# Conditions in all cases: zeocin, G418, nourseothricin, hygromycin 100 μg/mL, cycloheximide 1 μg/mL, aureobasidin A 0.1 μg/mL, 30° C.
# NG1 microorganism = format: cell-based, Issatchenkia occidentalis
# Procedure: (§1) The antibiotic resistance of the selected three different kinds of microorganisms to various antibiotics was examined. The antibiotics used were zeocin (100 μg/mL), G418 (100 μg/mL), cycloheximide (1 μg/mL), aureobasidin A (0.1 μg/mL), nourseothricin (100 μg/mL), and hygromycin (100 μg/mL). Each of the cell cultures of the isolated microorganisms was dotted on YPD solid medium (yeast extract (1%), peptone (2%), glucose (2%), and agar (2%)) and cultured at 30° C.
# NG7 microorganism = format: cell-based, Pichia kudriavzevii
# Procedure: as §1
# 2-2 microorganism = format: cell-based, Pichia kudriavzevii
# Procedure: as §1
Compound,Resistance of microorganism NG1 to antibiotic (NG1 microorganism),Resistance of microorganism NG1 to antibiotic (NG1 microorganism; listed as zeocin),Resistance of microorganism NG7 to antibiotic (NG7 microorganism),Resistance of microorganism NG7 to antibiotic (NG7 microorganism; listed as zeocin),Resistance of microorganism 2-2 to antibiotic (2-2 microorganism),Resistance of microorganism 2-2 to antibiotic (2-2 microorganism; listed as zeocin),Resistance of microorganism NG1 to antibiotic (NG1 microorganism; listed as aureobasidin A),Resistance of microorganism NG7 to antibiotic (NG7 microorganism; listed as aureobasidin A),Resistance of microorganism 2-2 to antibiotic (2-2 microorganism; listed as aureobasidin A),Resistance of microorganism NG1 to antibiotic (NG1 microorganism; listed as nourseothricin),Resistance of microorganism NG7 to antibiotic (NG7 microorganism; listed as nourseothricin),Resistance of microorganism 2-2 to antibiotic (2-2 microorganism; listed as nourseothricin),Resistance of microorganism NG1 to antibiotic (NG1 microorganism; listed as cycloheximide),Resistance of microorganism NG7 to antibiotic (NG7 microorganism; listed as cycloheximide),Resistance of microorganism 2-2 to antibiotic (2-2 microorganism; listed as cycloheximide)
"Cc1c(N)nc([C@H](CC(N)=O)NC[C@H](N)C(N)=O)nc1C(=O)N[C@H](C(=O)N[C@H](C)[C@@H](O)[C@H](C)C(=O)N[C@H](C(=O)NCCC1=N[C@@H](c2nc(C(=O)NCCCCN=C(N)N)cs2)CS1)[C@@H](C)O)[C@@H](O[C@@H]1O[C@@H](CO)[C@@H](O)[C@H](O)[C@@H]1O[C@H]1O[C@H](CO)[C@@H](O)[C@H](OC(N)=O)[C@@H]1O)c1cnc[nH]1 [Zeocin, zeocin]",+,resistance,+,resistance,+,resistance,,,,,,,,,
"CC[C@@H](C)[C@@H]1NC(=O)[C@@H]2CCCN2C(=O)[C@H](Cc2ccccc2)N(C)C(=O)[C@H](Cc2ccccc2)NC(=O)[C@H](C(C)C)N(C)C(=O)[C@@H]([C@H](C)CC)OC(=O)[C@H](C(C)(C)O)N(C)C(=O)[C@H](CC(C)C)NC(=O)[C@H](C(C)C)N(C)C1=O [Aureobasidin A, aureobasidin A] (cyclo(F[NMeF]P[aIle][NMeV]L[NMeVal(β-OH)][X1][NMeV]))",−,,−,,−,,no resistance,no resistance,no resistance,,,,,,
nourseothricin,−,,−,,−,,,,,no resistance,no resistance,no resistance,,,
"C[C@@H]1C[C@@H]([C@H](O)CC2CC(=O)NC(=O)C2)C(=O)[C@@H](C)C1 [Cycloheximide, cycloheximide]",+,,+,,+,,,,,,,,resistance,resistance,resistance
CN[C@@H]1[C@@H](O)[C@@H](O[C@@H]2[C@@H](O)[C@H](O[C@H]3O[C@H]([C@@H](C)O)[C@@H](O)[C@H](O)[C@H]3N)[C@@H](N)C[C@H]2N)OC[C@]1(C)O [G418],resistance and +,,resistance and +,,resistance and +,,,,,,,,,,
